In data set [1] the test system is leucémie L 1210 greffée i.p. Kind of data set: Antitumour activity on L1210 leukaemia grafted i.p. in mice, A1 and A2 injected separately (ICIG, Example 12). Type of data set: in vivo, souris B6D2F1/OLA. Conditions: for activité antitumorale sur la leucémie L 1210, in words: each isomer given separately i.v.; for T/C × 100: i.v. The source says:
Au jour J: 0, des souris mâles B6D2F1 âgées de trois mois reçoivent par voie intrapéritonéale 10^5 cellules de la souche leucémique L 1210. Les animaux sont répartis en lots de 8 à 10 animaux pour les groupes témoins et de 6 à 8 animaux pour les groupes traités. Aux jours J : 1, J : 5, J : 9, les animaux reçoivent par voie intrapéritonéale ou intraveineuse le traitement à différentes doses. La CNCC est administrée en suspension dans l'huile d'olive. Les produits selon l'invention sont administrés dans du sérum physiologique. La mortalité est enregistrée tous les jours. La médiane de survie des animaux traités et des animaux témoins a été déterminée. Les résultats sont considérés comme positifs lorsque l'index I = [formula] est supérieur à 125.
La valeur ∞ signifie que 50 à 100% des animaux sont survivants au jour J : 90.
L'activité cytostatique sur la leucémie L 1210 de A, et A2 a été évaluée à l'ICIG chez des souris B6D2F1/OLA.
II a en outre été procédé à l'ICIG à une étude de l'activité antitumorale sur la leucémie L 1210 de chaque isomère A, et AZ administré séparément par voie intraveineuse. Les résultats sont rassemblés sur le tableau IV. […] La comparaison des doses actives à celles de la CNCC est impossible pour les raisons d'insolubilité de la CNCC énoncées précédemment.

Data set [2] has as its system Leucémie L 1210 (greffée par voie i.c.). Conditions: Leucémie L 1210 i.c., jours 1,5,9, cited from earlier work.
The test system of data set [3] is Carcinome pulmonaire de Lewis (implanté en sous-cutané). Set-up: key: N.S.: Non significatif; ∞: 50% en plus des animaux traités sont guéris. Conditions: jours 1,5,9, cited from earlier work.
Data set [4] concerns Mélano-carcinome B 16 (implanté en sous-cutané). Conditions: Mélano-carcinome B 16 s.c., jours 1,5,9, cited from earlier work.
In data set [5] the test system is Gliome 26 (implanté en sous-cutané). More on the design: key: N.S.: Non significatif; ∞: 50% en plus des animaux traités sont guéris. Conditions: Gliome 26 s.c., jours 1,5,9, cited from earlier work.
For data set [6], the system named is Adénocarcinome mammaire TM2 (implanté en sous-cutané). Set-up: key: N.S.: Non significatif; ∞: 50% en plus des animaux traités sont guéris. Conditions: jours 1,5,9, cited from earlier work.
Data set [7] has as its system Fibrosarcome I.C.I.G. C1 (implanté en sous-cutané). Set-up: key: N.S.: Non significatif; ∞: 50% en plus des animaux traités sont guéris. Conditions: jours 1,5,9, cited from earlier work.
Data set [8] relates to Carcinome du côlon (côlon 26) (implanté en sous-cutané). More on the design: key: N.S.: Non significatif; ∞: 50% en plus des animaux traités sont guéris. Conditions: Carcinome du côlon (côlon 26) s.c., jours 1,5,9, cited from earlier work.
The subject of data set [9] is M 555 ovarienne (implanté en sous-cutané). Set-up: key: N.S.: Non significatif; ∞: 50% en plus des animaux traités sont guéris. Conditions: M 555 ovarienne s.c., jours 1,5,9, cited from earlier work.
Another data set relates to souche leucémique L1210. As to the kind of experiment: Antitumour activity on L1210 leukaemia inoculated i.p. in mice (ICIG, Example 11). Type of data set: in vivo, souris B6D2F1/OLA. Conditions: for indices I: dose not given; for survie à 60 jours: à différentes doses. The source says: L'activité oncostatique de ces dérivés nitrosés a été déterminée à l'ICIG de Villejuif (Service du Pr. Mathe), en suivant un protocole expérimental décrit: M. Hayat et Coll., Cancer Chemother. Phar- macol., 1979, 3,217-221, R. Maral et Coll., Eur. J. Med. Chem., soumis pour publication.
(§1) Des souris B6D2F1/OLA, mâles, sont inoculées avec 10^5 cellules de la souche leucémique L1210 par voie intrapéritonéale au jour 0 et divisées en groupes. Le premier est le groupe témoin et les autres sont traités avec les drogues à différentes concentrations au jour 1,5 et 9. Les composés sont injectés en suspension dans l'huile d'olive. La mortalité des animaux est observée et l'autopsie indique si elle est due à la leucémie ou à l'action toxique des produits.
(§2) La dose létale 50% (DL50 aiguë) est déterminée en tenant compte de la mortalité survenue avant le huitième jour chez les animaux traités au jour J: 1. La médiane de survie des animaux traités (mT) et des animaux témoin (mC) a été établie et le test statistique non paramétrique de Wilcoxon a été utilisé. Les résultats sont considérés positifs si l'indice I (I = ^mT x 100) est supérieur à 125 et le test mC significatif à p ≼ 0,05. La valeur ∞ indique que 50% ou plus des animaux sont survivants au jour +60.
Plus l'intervalle des doses à efficacité maximale, ayant donc I = ∞, est important, plus le produit est doué d'une activité intéressante sur la leucémie L1210.

Data set [10] is described as follows: Acute lethal dose 50% (DL50 aiguë), i.p. It counts as in vivo, souris B6D2F1/OLA. Conditions: for DL 50: i.p., mortality before day 8 in animals treated on day 1, 11520 min.
Excerpt: as §1, §2

Read-outs that look alike come from different tables or passages of the source. Where only a bound is given, the exact number is not on record here.

As for `C[S+]([O-])CCN(N=O)C(=O)NCCCl` (centres unmarked) [A1], the “activité antitumorale sur la leucémie L 1210, in words” value in data set [1] is reported as “faible activité”. Moreover, the “T/C × 100” value in data set [1] (5 mg/kg) was 100; in data set [1] (10 mg/kg) it was 100; in data set [1] (20 mg/kg) it was 133; in data set [1] (30 mg/kg) it was 133; in data set [1] (40 mg/kg) it was 158; in [1] (50 mg/kg) it was 158. The “T/C × 100” value in data set [1] (60 mg/kg) was “Toxique”.

On to `C[S+]([O-])CCNC(=O)N(CCCl)N=O` (centres unmarked) [A2], for which the “activité antitumorale sur la leucémie L 1210, in words” value in [1] is “forte activité”. Besides, the “T/C × 100” value in [1] (1 mg/kg) is on record as 100; in [1] (5 mg/kg), “∞ (La valeur ∞ signifie que 50 à 100% des animaux sont survivants au jour J : 90)”; in data set [1] (10 mg/kg), “∞ (La valeur ∞ signifie que 50 à 100% des animaux sont survivants au jour J : 90)”; in data set [1] (20 mg/kg) it was 63; in data set [1] (30 mg/kg), 63; in data set [1] (40 mg/kg) it was 63.

For the molecule `CC1(C)O[C@@H]2[C@@H](COC(=O)c3ccc([N+](=O)[O-])cc3)OC(NC(=O)N(CCCl)N=O)[C@@H]2O1` (some centres unmarked) [RFCNU], the “Augmentation de la durée de survie (I.L.S.: T/C×100)” value (from here on “Augmentation de la durée de survie”) in [2] (20 mg/kg I.P.) is recorded as 167; in data set [3] (20 mg/kg I.P.), “N.S”; in [4] (20 mg/kg I.P.), 144; in data set [5] (20 mg/kg I.P.), “N.S”; in data set [6] (20 mg/kg I.P.), “N.S”; in data set [7] (20 mg/kg I.P.), “∞ (50% en plus des animaux traités sont guéris)”. In addition, the “Augmentation de la durée de survie” value in data set [8] (20 mg/kg I.P.) and in [9] (20 mg/kg I.P.) was “N.S” each time.

Consider `CSCCNC(=O)N(CCCl)N=O` [(3) ICIG 2017, S-méthyl N-[N-(chloro-2 éthyl)N-nitrosocarbamoyl] cystéamine], for which the “I = T/c × 100” value in the data set with souche leucémique L1210 (0,8 mg/kg i.p., jours 1,5,9) is on record as 167; with souche leucémique L1210 (0,32 mg/kg i.p., jours 1,5,9), 133; with souche leucémique L1210 (2 mg/kg i.p., jours 1,5,9), 158; in the data set with souche leucémique L1210 (5 mg/kg i.p., jours 1,5,9) it was “∞ (La valeur ∞ indique que 50% ou plus des animaux sont survivants au jour +60)”; with souche leucémique L1210 (15 mg/kg i.p., jours 1,5,9) it was 156; with souche leucémique L1210 (12,5 mg/kg i.p., jours 1,5,9) it was “∞ (La valeur ∞ indique que 50% ou plus des animaux sont survivants au jour +60)”. Further, the “% de survivants à 60 jours” value with souche leucémique L1210 (5 mg/kg i.p., jours 1,5,9) stood at 100%; in the data set on souche leucémique L1210 (12,5 mg/kg i.p., jours 1,5,9), 87%. In addition, the “indices I” value in the data set with souche leucémique L1210 is reported as “infini”. Moreover, the “survie à 60 jours” value with souche leucémique L1210 was 100%. Also, the “DL 50” value in [10] came to 22 mg/kg.

With `O=NN(CCCl)C(=O)NCCO` [HECNU], the “Augmentation de la durée de survie” value in data set [2] (10 mg/kg I.P.) is “∞ (50% en plus des animaux traités sont guéris)”; in [3] (10 mg/kg I.P.) it was “∞ (50% en plus des animaux traités sont guéris)”; in data set [4] (10 mg/kg I.P.), 198; in [5] (10 mg/kg I.P.), 182; in data set [6] (10 mg/kg I.P.), 165; in data set [7] (10 mg/kg I.P.), “N.S”. Moreover, the “Augmentation de la durée de survie” value was “∞ (50% en plus des animaux traités sont guéris)” in [8] (10 mg/kg I.P.) and 210 in data set [9] (10 mg/kg I.P.).

Regarding `O=NN(CCCl)C(=O)NCCSC(c1ccccc1)(c1ccccc1)c1ccccc1` [(9) ICIG 2069, S-trityl N-[N-(chloro-2 éthyl) N-nitrosocarbamoyl] cystéamine], the “I = T/c × 100” value with souche leucémique L1210 (250 mg/kg i.p., jours 1,5,9, résultats partiels) is more than 278; in the data set with souche leucémique L1210 (625 mg/kg i.p., jours 1,5,9, résultats partiels) it was more than 278. For the same molecule, in data set [10], the “toxicité, in words” value is recorded as “n'est pas toxique”.

`CC(=O)SCCNC(=O)N(CCCl)N=O` [(5) ICIG 2018, S-acétyl N-[N-(chloro-2 éthyl) N-nitrosocarbamoyl] cystéamine]: the “I = T/c × 100” value in the data set with souche leucémique L1210 (0,64 mg/kg i.p., jours 1,5,9) is reported as 100; with souche leucémique L1210 (4 mg/kg i.p., jours 1,5,9) it was 158; with souche leucémique L1210 (5 mg/kg i.p., jours 1,5,9), 217; in the data set on souche leucémique L1210 (10 mg/kg i.p., jours 1,5,9) it was “∞ (La valeur ∞ indique que 50% ou plus des animaux sont survivants au jour +60)”; in the data set with souche leucémique L1210 (15 mg/kg i.p., jours 1,5,9), 490; in the data set on souche leucémique L1210 (20 mg/kg i.p., jours 1,5,9), 211. Further, the “I = T/c × 100” value with souche leucémique L1210 (1,6 mg/kg i.p., jours 1,5,9) is 117; in the data set on souche leucémique L1210 (12,5 mg/kg i.p., jours 1,5,9) it was “∞ (La valeur ∞ indique que 50% ou plus des animaux sont survivants au jour +60)”. Also, the “% de survivants à 60 jours” value with souche leucémique L1210 (5 mg/kg i.p., jours 1,5,9) was 14%; in the data set on souche leucémique L1210 (10 mg/kg i.p., jours 1,5,9), 100%; in the data set with souche leucémique L1210 (15 mg/kg i.p., jours 1,5,9), 25%; in the data set with souche leucémique L1210 (12,5 mg/kg i.p., jours 1,5,9), 80%. For the same molecule, the “indices I” value in the data set on souche leucémique L1210 is recorded as “infini”. For the same molecule, the “survie à 60 jours” value in the data set with souche leucémique L1210 is recorded as 100%. Moreover, the “DL 50” value in [10] came out at 25 mg/kg.

For the molecule `O=NN(CCCl)C(=O)NCCS` [(1) ICIG 2016, N-[N-(chloro-2 éthyl) N-nitrosocarbamoyl] cystéamine], the “I = T/c × 100” value was 162 with souche leucémique L1210 (0,8 mg/kg i.p., jours 1,5,9); 265 in the data set on souche leucémique L1210 (0,32 mg/kg i.p., jours 1,5,9); 188 with souche leucémique L1210 (2 mg/kg i.p., jours 1,5,9); “∞ (La valeur ∞ indique que 50% ou plus des animaux sont survivants au jour +60)” in the data set on souche leucémique L1210 (5 mg/kg i.p., jours 1,5,9); “∞ (La valeur ∞ indique que 50% ou plus des animaux sont survivants au jour +60)” in the data set on souche leucémique L1210 (10 mg/kg i.p., jours 1,5,9); “∞ (La valeur ∞ indique que 50% ou plus des animaux sont survivants au jour +60)” in the data set on souche leucémique L1210 (15 mg/kg i.p., jour + 1). Further, in the data set on souche leucémique L1210 (12,5 mg/kg i.p., jours 1,5,9), the “I = T/c × 100” value is listed as “∞ (La valeur ∞ indique que 50% ou plus des animaux sont survivants au jour +60)”. Further, the “% de survivants à 60 jours” value is given as 100% in the data set with souche leucémique L1210 (5 mg/kg i.p., jours 1,5,9); 100% in the data set on souche leucémique L1210 (10 mg/kg i.p., jours 1,5,9); 100% in the data set on souche leucémique L1210 (15 mg/kg i.p., jour + 1); 100% in the data set with souche leucémique L1210 (12,5 mg/kg i.p., jours 1,5,9). Also, the “indices I” value in the data set with souche leucémique L1210 is listed as “infini”. In addition, in the data set with souche leucémique L1210, the “survie à 60 jours” value was 100%. In addition, the “DL 50” value in data set [10] stood at 19 mg/kg.

(Values after EP0185020B1, “NI[…] PREPARATION THEREOF AND UTILIZATION THEREOF IN ANTICANCEROUS CHEMIOTHERAPY” (CENTRE NATIONAL DE LA RECHERCHE SCIENTIFIQUE (CNRS), priority 1984, dated 1985).)
